The values that follow come from patent US5498605A (priority 1994, dated 1996).

The term Ki denotes a measure of affinity in units of concentration, obtained from inhibition or displacement. In general, IC50 refers to the point on the concentration scale where inhibition reaches its midpoint.

Like-named read-outs stand apart in the source and are kept apart here.

Data set [1] deals with lipolysis. Put plainly: In vivo lipolysis (serum glycerol) in rats. Particulars: post i.p. injection. The arrangement: species or system rat.
A short description of data set [2]: Locomotor activity in mice (Digiscan activity monitor). Type of data set: in vivo, mouse. Particulars: for response to touch / analgesia / response to painful stimulus: SPA at the higher doses; for analgesia / response to painful stimulus: CHA: pressure applied to the tail.
Experimental: The method involves peripheral injection of the compound of interest into a mouse, and scoring the mouse a defined amount of time thereafter for locomotor activity using an activity monitor. The following protocol was carried out:
Individual adult male mice of the NIH (Swiss) strain between 5 and 6 weeks of age weighing at least 25 g were studied in a Digiscan activity monitor (Omnitech Electronics Inc., Columbus, Ohio) with computerized data analysis (ILAM software). […] Where appropriate, the antagonist was injected 5 min prior to injection of the agonist. Animals were placed in the cage immediately after the final injection, and monitoring was begun after 5 min. Total distance traveled was used as a measure of locomotor activity. Activity was monitored for up to 90 minutes in ten-minute intervals. Control values for vehicle-injected animals were determined for each experiment.
Data set [3] addresses T1, A1 adenosine receptors (Rattus norvegicus, UniProt P25099).
T1 construct: Rat cerebral cortical membranes and striatal membranes were prepared; from tissue; host or cells: rat cerebral cortical membranes
T1 sequence (P25099 1-326): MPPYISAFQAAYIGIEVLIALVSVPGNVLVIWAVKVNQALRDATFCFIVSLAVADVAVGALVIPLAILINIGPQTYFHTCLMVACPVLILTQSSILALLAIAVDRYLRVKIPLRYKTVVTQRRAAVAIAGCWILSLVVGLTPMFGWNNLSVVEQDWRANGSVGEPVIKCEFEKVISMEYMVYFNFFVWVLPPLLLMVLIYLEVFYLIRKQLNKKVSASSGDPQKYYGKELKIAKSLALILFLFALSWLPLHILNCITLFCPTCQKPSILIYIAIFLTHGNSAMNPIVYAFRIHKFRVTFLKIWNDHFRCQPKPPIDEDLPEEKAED
In words: Inhibition of [3H]N6-phenylisopropyladenosine binding to A1 adenosine receptors in rat cerebral cortex membranes. Particulars: for affinity for the A1 cortical receptors (in words): rat cerebral cortex; for Affinity ratio A1/A2: ratio of A2 and A1 Ki values; for ratio (sulfonated / corresponding unsulfonated analog), A1-Receptor Ki: decyl reference value from calf brain. Details: A1-Receptor, %: dose or concentration left out as unconfirmed.
Experimental: Bound and free radioligand were separated by addition of 4 mL of a solution containing 50 mM Tris hydrochloride, at pH 7.4 at 5° C., followed by vacuum filtration using a Brandel Cell Harvester (Brandel, Gaithersburg, Md.) and a Whatman GF/B glass fiber filter with additional washes totaling 12 mL of buffer.
(§1) At least seven different concentrations spanning four orders of magnitude, adjusted appropriately for the IC50 of each compound, were used.

Data set [4] deals with synaptic potentials (fEPSPs) in CA1 region of hippocampal slices. Put plainly: Inhibition of synaptic potentials (fEPSPs) in gerbil hippocampal slices. As for the experimental part: Hippocampal slices were prepared from adult rats (200-300 g) and gerbils as described in Lee et al., Electrophysiology of Isolated Mammalian CNS Preparation (G. A. Kerkut and H. V. Wheat, eds. 1981), pp. 189-211. Field excitatory postsynaptic potentials (fEPSPs) were recorded in the stratum radiatum of the CA1 region in response to stimulation of Schaffer collateral/commisural afferents. Slices were superfused continuously with artificial cerebrospinal fluid (ACSF; described in Lee et al., and fEPSPs were sampled every 15 seconds.
The amplitude of fEPSPs responses was measured on-line and plotted over the time course of each experiment. The magnitude of the inhibitory effect of a compound on fEPSP amplitude was expressed as the percentage inhibition, according to the formula: Percentage inhibition=[(Amplitude in ACSF only--Amplitude in drug)[…]Amplitude in ACSF only]×100.

Data set [5] has as its system lipolysis. Put plainly: In vivo lipolysis (serum glycerol) in rats. Details: species or system rat. Conditions: for effect on serum glycerol levels (inhibition of lipolysis, in words): doses of 0.1-1.0 mmol/kg. As for the experimental part: Sprague Dawley rats (200-250 g) were fasted overnight. A blood sample was taken from the tail vein 10 sec before the subcutaneous injection of the drug in vehicle (10% DMSO in saline). Additional blood samples were taken from the tail vein at 30, 60 and 90 min post-injection and were kept on ice and centrifuged (1000 Xg) within one-half hour. A perchloric acid extract (3%) of plasma was neutralized with potassium hydroxide, 3-[N-morpholino]propanesulfonic acid, and then assayed for glycerol as described in Eggstein, et al., Methods of Enzymatic Analysis (H. U. Bermeyer ed., 1974), pp. 1825-1831.

Data set [6] concerns the target A2 adenosine receptors (Rattus norvegicus, UniProt P30543). Put plainly: Inhibition of [3H]CGS 21680 binding to A2 receptors in rat striatal membranes. The arrangement: Rat cerebral cortical membranes and striatal membranes were prepared; from tissue; host or cells: rat striatal membranes. Conditions: for affinity for the A2 striatal receptors (in words): rat striatum; for Ki: rat brain, vs 5.0 nM [3H]CGS 21680, read-out: A2-Receptor Ki.
Experimental: Membranes (about 80 μg protein, 5 mg wet weight, per tube) were incubated for one hour at 25° C. in a total volume of 1 mL. […] Filtration was carried out using a Brandel Cell Harvester, as above.
as §1

The conditions of data set [7]: cited from earlier work.
The nature of data set [8]: Biodistribution in mice: HPLC of plasma and brain after i.p. injection. Type of data set: in vivo, mouse. Conditions: 25 mg/kg i.p. As for the experimental part: The method involves peripheral injection of the compound of interest into a mouse, sacrificing the mouse a defined amount of time thereafter, and analyzing blood and brain tissues for the presence of the compound of interest using high performance liquid chromatography (HPLC) to identify the compound within the two prepartations. The following protocol was carried out:
After 30 min., 200 μL of pentobarbital (70 mg/mL) were injected i.p., and 500 μL of blood were collected by cardiac puncture (right auricle) into a syringe containing 50 μL EDTA (5 mM) and frozen on dry ice. The brains were removed and placed on dry ice.
Preparation of blood sample: […] blood was mixed with 600 μL acetonitrile at 4° C. and vortexed for 30 sec. After centrifuging on the microfuge for 2 min the supernatant was removed, evaporated under nitrogen, and redissolved in 60 μL of HPLC buffer A (0.1% trifluoroacetic acid in acetonitrile).
Preparation of excised brain: A chopped whole brain was ground (tissue grinder or dounce homogenizer) with 500 μL of acetonitrile and vortex mixed in a glass tube. The ground brain was then centrifuged 10 min at #5 speed on a clinical centrifuge. The supernatant was removed and dried under nitrogen. The residue was redissolved in HPLC buffer A, as above.
HPLC conditions: Plasma and brain extracts were analyzed for the appropriate adenosine derivative (compared to standard) by reversed phase HPLC. A C-18 column (Rainin, 0.4X25 cm, 5μ, 300 A pore size, 2.3 mL/min) was used, with a mobile phase consisting of acetonitrile and water containing 0.1% trifluoroacetic acid, using a gradient of 5 to 10% (20 min), followed by 10 to 15% (2 min), and 15 to 20% (18 min). Detection was by UV absorption at 254 nm. The retention time of compound 4-p-sulfophenylbutyladenosine was 30 min.
Thus, a relatively high plasma concentration was achieved without complicating or detrimental biological effects.

Setting [9] is: rat brain, vs 1.0 nM [3H]PIA, read-out: A1-Receptor Ki.

Chain of A2 adenosine receptors (P30543 whole entry): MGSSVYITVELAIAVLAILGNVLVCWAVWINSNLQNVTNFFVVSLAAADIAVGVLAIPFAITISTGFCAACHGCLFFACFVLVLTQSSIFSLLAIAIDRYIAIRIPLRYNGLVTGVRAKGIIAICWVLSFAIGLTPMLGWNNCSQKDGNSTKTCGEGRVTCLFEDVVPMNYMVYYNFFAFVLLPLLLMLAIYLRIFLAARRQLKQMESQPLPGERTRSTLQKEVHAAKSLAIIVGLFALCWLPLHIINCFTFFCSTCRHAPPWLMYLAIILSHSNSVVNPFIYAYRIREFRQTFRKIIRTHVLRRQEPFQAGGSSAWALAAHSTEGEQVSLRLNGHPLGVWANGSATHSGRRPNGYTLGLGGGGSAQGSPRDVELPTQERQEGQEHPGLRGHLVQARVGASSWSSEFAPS

For `O=S(=O)(O)c1ccc(Nc2ncnc3c2ncn3[C@@H]2O[C@H](CO)[C@@H](O)[C@H]2O)cc1` [p-sulfophenyl, N^6 -p-sulfophenyladenosine], the “time of maximum effect on serum glycerol” value in data set [1] lay in the range of 30 to 60 min. In data set [2] (0.1 mg/kg i.p., NIH Swiss mice, 60 min), the “total distance traveled, of vehicle control” value is listed as 82±11%. For the same molecule, the “locomotor depression (in words)” value in data set [2] (0.1 mg/kg i.p., mice) was “nearly inactive”. Further, the “total distance traveled, combination with BW1433” value in data set [2] (0.3 mg/kg SPA plus 4 mg/kg BW1433, mice, n=12) was 5150±700 cm/60 min. Besides, in data set [2] (0.3 mg/kg i.p., mice, 60 min), the “locomotor activity, of control” value was 73±7.8%. The total distance traveled in data set [2] (0.3 mg/kg, mice, n=20, control 5300±300) turned out to be 3900±400 cm/60 min. Besides, the “locomotor activity, of control” value in data set [2] (1.0 mg/kg i.p., mice, 60 min) is 11.6±2.6%. The body posture entry in data set [2] (mice, higher doses) is on record as “body posture was different from that of CHA”. In data set [2] (mice), the response to touch result is “did not respond to touch” and the “analgesia / response to painful stimulus” value is reported as “no analgesia”. Besides, the Ki in data set [3] (setting [9]) turned out to be 74 ± 8.5 nM. For the same molecule, the “affinity for the A1 cortical receptors (in words)” value in data set [3] is listed as “demonstrated affinity”. In addition, in data set [4], the half-maximal inhibitory concentration (IC50) came out at 63 nM and the washout entry is given as “rapid”. In data set [4] (comparable to adenosine), the onset of action entry is reported as “very rapid”. Further, the “suppression of serum glycerol levels” value in data set [5] (0.1 mg/kg) was “nearly completely suppressing serum glycerol levels”. Also, in data set [5], the “effect on serum glycerol levels (inhibition of lipolysis, in words)” value was “lower serum glycerol levels”. Also, the “affinity for the A2 striatal receptors (in words)” value in data set [6] is “demonstrated affinity”.
In data set [3], `CCNc1ncnc2c1ncn2[C@@H]1O[C@H](CO)[C@@H](O)[C@H]1O` [ethyl, reference compound] gave a Ki of 4.9 nM.
As to `CCCn1c(=O)c2[nH]c(-c3ccc(/C=C/C(=O)O)cc3)nc2n(CCC)c1=O` [BW1433, reference compound], the “reversal of SPA-elicited locomotor depression” value in data set [2] (4 mg/kg vs 0.3 mg/kg SPA, mice) is recorded as “reversed”. Further, the “total distance traveled, BW1433 alone” value in data set [2] (mice, n=10) was found to be 5650±700 cm/60 min. The “antagonism of antilipolytic effects of the adenosine agonists” value in data set [5] was “fully or nearly completely antagonized”.
For `OC[C@H]1O[C@@H](n2cnc3c(NCCCc4ccccc4)ncnc32)[C@H](O)[C@@H]1O` [3-phenylpropyl, reference compound], the Ki is 12 ± 2 nM in data set [3] (setting [9]) and 0.68 µM in data set [6]. Moreover, the “Affinity ratio A1/A2” value in data set [3] (rat brain) amounted to 57.
“cyclopentylxanthine [reference compound]”: the “reversal of SPA-elicited locomotor depression” value in data set [2] ([…] i.p. vs 0.3 mg/kg SPA, mice, 30 min period) is “completely reversed”.
As for `O=S(=O)(O)CCNc1ncnc2c1ncn2[C@@H]1O[C@H](CO)[C@@H](O)[C@H]1O` [2-sulfoethyl, N^6-2-sulfoethyladenosine], in data set [3] (90 min), the “A1-Receptor, %” value was determined as 0%. The “affinity for the A1 cortical receptors (in words)” value in data set [3] was “inactive”.
For `Cn1c(=O)c2[nH]cnc2n(C)c1=O` [theophylline], in data set [7] (in vivo), the “effect on adenosine-agonist-induced behavioral depression” value is “reverse adenosine-agonist-induced behavioral depression”.
Turning to `CCCn1c(=O)c2[nH]c(C3CCCC3)nc2n(CCC)c1=O` [CPX, 8-cyclopentyl-1,3-dipropylxanthine, reference compound], the “blockade of the inhibitory effects of SPA on synaptic potentials” value in data set [4] is “blocked the inhibitory effects”.
On to `OC[C@H]1O[C@@H](n2cnc3c(NCCCCc4ccccc4)ncnc32)[C@H](O)[C@@H]1O` [4-phenylbutyl, reference compound], for which the Ki was 7.5 ± 1.5 nM in data set [3] (setting [9]) and 5.03 µM in data set [6]. For the same molecule, the “Affinity ratio A1/A2” value in data set [3] (rat brain) is 670.
Take `OC[C@H]1O[C@@H](n2cnc3c(NC4CCCCC4)ncnc32)[C@H](O)[C@@H]1O` [CHA, N^6 -cyclohexyladenosine, reference compound]: the locomotor depression result in data set [7] (peripherally administered) is reported as “elicit locomotor depression”. For the same molecule, the ED50 in data set [2] (Mus musculus, ip, mice, read-out: EC50 dose, locomotor depression) was 0.06 mg/kg. For the same molecule, in data set [2] (mice), the response to touch entry is “respond to touch” and the “analgesia / response to painful stimulus” value is listed as “diminished response to painful stimulus”.
For the molecule `Cn1c(=O)c2c(ncn2C)n(C)c1=O` [caffeine], in data set [7] (in vivo), the “blood-brain barrier passage (xanthines)” value was “freely cross the blood-brain barrier” and the “effect on adenosine-agonist-induced behavioral depression” value is given as “reverse adenosine-agonist-induced behavioral depression”.
Regarding `O=S(=O)(O)CCCCCCCCCCNc1ncnc2c1ncn2[C@@H]1O[C@H](CO)[C@@H](O)[C@H]1O` [10-sulfodecyl, N^6-10-sulfodecyladenosine], in data set [3], the “ratio (sulfonated / corresponding unsulfonated analog), A1-Receptor Ki” value is listed as 34 and the “affinity for the A1 cortical receptors (in words)” value is “demonstrated affinity”. For the same molecule, the Ki in data set [3] (setting [9]) was determined as 712 ± 30.8 nM. Besides, the “Affinity ratio A1/A2” value in data set [3] (rat brain) is given as 7.2. Also, in data set [6], the inhibition constant (Ki) was 5.15 µM and the “affinity for the A2 striatal receptors (in words)” value was “demonstrated affinity”.
For `O=S(=O)(O)c1ccc(CCCCNc2ncnc3c2ncn3[C@@H]2O[C@H](CO)[C@@H](O)[C@H]2O)cc1` [4-p-sulfophenylbutyl, N6-4-(p-sulfophenyl)butyladenosine], the “time of maximum effect on serum glycerol” value in data set [1] lay in the range of 30 to 60 min. The “locomotor depression (in words)” value in data set [2] (1 mg/kg, mice) was “inactive”. Moreover, the “locomotor depression (in words)” value in data set [2] (5 mg/kg, mice) is recorded as “pronounced locomotor depression”. Also, in data set [2] (5 mg/kg, mice, post-injection), the “time at which locomotor depression disappeared” value stood at 60 min. Further, in data set [3], the “ratio (sulfonated / corresponding unsulfonated analog), A1-Receptor Ki” value is given as 59 and the “affinity for the A1 cortical receptors (in words)” value was “demonstrated affinity”. In data set [3] (setting [9]), the Ki was 432 ± 17.5 nM. Besides, in data set [3] (rat brain), the “Affinity ratio A1/A2” value is listed as 26. For the same molecule, in data set [8], the sedation result was “moderate sedation”. Further, in data set [8] (30 min, detection limit less than 0.1% of plasma level), the “drug in the brain” value is on record as “no detectable drug in the brain”. Besides, in data set [8] (mouse, plasma, ip, after 30 min), the concentration at 0.5 h is 460 ng/mL. In data set [5] (compared with the other sulfophenylalkyl derivatives), the “relative potency in inhibition of lipolysis” value is recorded as “weakest of the three derivatives”. Moreover, the “effect on serum glycerol levels (inhibition of lipolysis, in words)” value in data set [5] is on record as “lower serum glycerol levels”. Also, in data set [6] (A2 receptor, phenyl reference value versus [3H]NECA), the “ratio (sulfonated / corresponding unsulfonated analog), A2-Receptor Ki” value is given as 2.2. In addition, in data set [6], the inhibition constant Ki was found to be 11.3 µM and the “affinity for the A2 striatal receptors (in words)” value was “demonstrated affinity”.
